Columns and labels:
NET [1] = target: T1, NET (Homo sapiens, UniProt P23975); experiment: hNET radioligand binding assay (3H-nisoxetine); set-up: expressed in transfected cells; host or cells: HEK-293; conditions: hNET membranes (HEK-293), 1.0 nM 3H-nisoxetine; for Ki: read-out: NET pKi (converted)
Summary of the method: (§1)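 Membranes came from HEK-293 cells stably expressing hSERT (0.5 μg protein) or hNET (1 μg), with 3H-citalopram or 3H-nisoxetine respectively. Incubation was 60 min at 22° C in Tris buffer with 120 mM NaCl and 5 mM KCl, pH 7.4, followed by filtration and scintillation counting. pKi was derived by Cheng-Prusoff from IC50 and saturation-derived Kd.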

SERT [2] = target: T2, SERT (Homo sapiens, UniProt P31645); experiment: hSERT radioligand binding assay (3H-citalopram); set-up: expressed in transfected cells; host or cells: HEK-293; conditions: hSERT membranes (HEK-293), 1.0 nM 3H-citalopram; for Ki: read-out: SERT pKi (converted)
Summary of the method: as §1
Target sequence in this assay (P31645 whole entry): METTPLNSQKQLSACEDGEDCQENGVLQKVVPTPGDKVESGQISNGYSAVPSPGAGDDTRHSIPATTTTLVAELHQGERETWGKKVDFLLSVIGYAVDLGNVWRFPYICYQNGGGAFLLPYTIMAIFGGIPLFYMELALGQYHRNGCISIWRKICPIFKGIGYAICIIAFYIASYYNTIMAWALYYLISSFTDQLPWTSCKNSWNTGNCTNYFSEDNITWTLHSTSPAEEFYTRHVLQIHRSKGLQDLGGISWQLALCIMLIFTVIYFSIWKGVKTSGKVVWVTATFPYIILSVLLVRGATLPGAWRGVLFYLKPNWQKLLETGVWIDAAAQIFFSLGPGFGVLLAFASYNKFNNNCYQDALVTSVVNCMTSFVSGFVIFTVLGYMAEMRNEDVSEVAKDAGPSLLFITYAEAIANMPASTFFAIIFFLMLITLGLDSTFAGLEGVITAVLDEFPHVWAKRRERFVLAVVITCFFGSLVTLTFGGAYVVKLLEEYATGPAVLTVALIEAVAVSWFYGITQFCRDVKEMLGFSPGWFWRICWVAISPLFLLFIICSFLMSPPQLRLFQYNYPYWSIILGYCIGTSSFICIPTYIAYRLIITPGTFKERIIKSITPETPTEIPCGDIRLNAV

NET [3] = target: T1, NET; conditions: cited from earlier work
SERT [4] = target: T2, SERT; conditions: cited from earlier work
Target sequence in this assay (P31645 whole entry, species assumed): as the sequence (P31645 whole entry) above

T1 sequence (P23975 whole entry): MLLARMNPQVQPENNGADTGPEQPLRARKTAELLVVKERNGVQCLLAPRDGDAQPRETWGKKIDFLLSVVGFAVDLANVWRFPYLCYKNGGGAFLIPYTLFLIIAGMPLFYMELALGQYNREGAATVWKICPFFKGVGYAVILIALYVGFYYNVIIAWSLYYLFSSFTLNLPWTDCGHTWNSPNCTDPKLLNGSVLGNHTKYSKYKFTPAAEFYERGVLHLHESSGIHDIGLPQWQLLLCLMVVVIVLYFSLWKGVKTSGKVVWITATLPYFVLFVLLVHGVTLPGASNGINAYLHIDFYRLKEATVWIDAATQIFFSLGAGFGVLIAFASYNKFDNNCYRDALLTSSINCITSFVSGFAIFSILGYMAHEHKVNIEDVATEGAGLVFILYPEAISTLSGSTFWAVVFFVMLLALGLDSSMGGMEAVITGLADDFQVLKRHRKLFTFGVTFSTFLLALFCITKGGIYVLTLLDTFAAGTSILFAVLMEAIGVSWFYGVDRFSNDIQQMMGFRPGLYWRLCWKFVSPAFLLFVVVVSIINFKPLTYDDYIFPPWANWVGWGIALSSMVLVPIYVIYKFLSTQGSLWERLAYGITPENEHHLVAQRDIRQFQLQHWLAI

Compound	Ki (NET [1]) [nM]	Ki (SERT [2]) [nM]	NET pKi (NET [1])	SERT pKi (SERT [2])	further results
COc1cc(F)c(O[C@@H](c2nccs2)[C@H]2CCNC2)c(F)c1 [Example 5-28]			≧5.0	≧7.0	
COc1cc(F)c(O[C@H](c2nccs2)C2CCNC2)c(F)c1 (some centres unmarked) [Example 5-29]			≧5.0	≧7.0	
Fc1ccc(O[C@@H](c2nccs2)[C@H]2CCNC2)cc1Cl [Example 5-30]			≧5.0	≧7.0	
Fc1ccc(O[C@H](c2nccs2)[C@H]2CCNC2)cc1Cl [Example 5-31]			≧7.0	≧7.0	
Fc1cc(Cl)ccc1OC(c1nccs1)C1CCNC1 [Example 5-32, 2-[(R)-(4-Chloro-2-fluorophenoxy)-((S)-pyrrolidin-3-yl-methyl]thiazole]	≤ 10000	≤ 100			
Fc1cc(Cl)ccc1O[C@H](c1nccs1)[C@H]1CCNC1 [Example 5-33]			≧7.0	≧7.0	
Cc1cc(Cl)cnc1O[C@@H](c1ccccc1)[C@H]1CCNC1 [Example 13]	≤ 100	≤ 100			
Cc1cc(Cl)cnc1O[C@@H](c1cncc(F)c1)[C@H]1CCNC1 [Example 17]	≤ 100	≤ 100			
Cc1ccc(C23CNCC2C3)cc1 (centres unmarked) [bicifadine]					pKi at NET (NET [3]): 6.7; pKi at SERT (SERT [4]): 7.0
CCN(CC)C(=O)C1(c2ccccc2)CC1CN (centres unmarked) [milnacipran]					selectivity (measured as pKi) for SERT over NET (SERT [4]): 2.5 fold

Now from value to compound, other results behind:

Ki (NET [1]) [nM]	Ki (SERT [2]) [nM]	Compound	NET pKi (NET [1])	SERT pKi (SERT [2])	further results
≤ 10000	≤ 10000	Fc1ccc(F)c(O[C@@H](c2ccco2)[C@H]2CCNC2)c1Cl [Example 8-1, (S)-3-[(R)-(2-Chloro-3,6-difluorophenoxy)furan-2-yl-methyl]pyrrolidine]			
≤ 10000	≤ 10000	Cc1cc(Cl)ccc1O[C@@H](c1ccco1)[C@H]1CCNC1 [Example 8-2, (S)-3-[(R)-(4-Chloro-2-methylphenoxy)furan-2-yl-methyl]pyrrolidine]			
≤ 100	≤ 100	Clc1cc(Cl)cc(O[C@@H](c2ccco2)[C@H]2CCNC2)c1 [Example 8-3, (S)-3-[(R)-(3,5-Dichlorophenoxy)furan-2-yl-methyl]pyrrolidine]			
≤ 100	≤ 100	Clc1cc(Cl)cc(O[C@H](c2ccco2)[C@H]2CCNC2)c1 [Example 8-4, (S)-3-[(S)-(3,5-Dichlorophenoxy)furan-2-yl-methyl]pyrrolidine]			
≤ 100	≤ 100	Clc1cc(Cl)cc(OC(c2ccoc2)C2CCNC2)c1 [Example 9-1, (S)-3-[(R)-(3,5-Dichlorophenoxy)-furan-3-yl-methyl]pyrrolidione]			
